For assay [1], the system named is Krt14-KitL* (SCF) mice. The assay can be described thus: Vitiligo scoring in vitiligo mouse model. Format: in vivo. To be noted: 6 weeks (30 treatment days).
Assay [2] relates to PMEL T cell. The assay can be described thus: Flow cytometry of PMEL T cell counts in tissues of vitiligo mouse model. It is filed as in vivo.
Assay [3] relates to proliferating CD3+ T cells in human hair follicles. The assay can be described thus: CD3/Ki-67 immunofluorescence of cultured human hair follicles after CD3/CD28 activation. It is filed as cell-based. To be noted: 70 or 140 nM farudodstat + 25 μg/ml CD3/CD28, vs CD3/CD28 alone. The protocol: (§1) Human hair follicle samples were obtained after informed after informed, written patient consent and ethics committee approval (University of Muenster 2015-602-f-S) and the Comite de Bioetica de la Universidad Fernando Pessoa Canarias (03 (2020-06-22)). This study was conducted according to the Declaration of Helsinki principles.
Cryosections of cultured human hair follicles were immunostained, using antibodies against the human CD3 transmembrane protein of T-lymphocytes (THERMOFISHER, Cat. 15-0038-45, clone UCHT1) and Ki-67, which is a marker of proliferation (ABCAM. Cat. ab15580). Fluorescent images were acquired using the Keyence BZ-X810 inverted microscope and CD3 and double positive cells were counted in epithelium and mesenchyme along the entire hair follicle. The number of proliferative CD3+ T-cells is given as a total number of double positive cells per hair follicle.
(§2) Human hair follicles (HF) were cultured on Day 0 in 48-well plates (1 HF per […]) at 37° C. with 5% CO2 in a media William's E media+RPMI (Gibco, Life Technologies) supplemented with 10 ng/ml hydrocortisone (Sigma Aldrich), 10 μg/ml insulin (Sigma Aldrich), 2 mM L-glutamine (Sigma Aldrich), and 1% penicillin/streptomycin mix (Gibco).
On Day 1, anagen VI HFs were selected for further culture. For quality control, only HFs that grew at least 3% from Day 0 to Day 1 were selected for continued experimentation, […]

Assay [4] concerns MHC Class I. The assay can be described thus: MHC-I immunostaining of cultured human hair follicles after CD3/CD28 activation. It is filed as cell-based. To be noted: 70 or 140 nM farudodstat + 25 μg/ml CD3/CD28, vs CD3/CD28 alone. The protocol:
as §1
Cryosections of cultured human hair follicles were immunostained, using a monoclonal mouse antibody against human MHC-I (DAKO, Cat. R7000, clone W6/32). Fluorescent images were acquired using the Keyence BZ-X810 inverted microscope and images were analysed using ImageJ software.
as §2
On Day 1, anagen VI HFs were selected for further culture. For quality control, only HFs that grew at least 3% from Day 0 to Day 1 were selected for continued experimentation,
In order to induce hair follicle immune privilege collapse and to activate resident intra/perifollicular immune cells, the hair follicles were pre-treated with CD3/CD28. […]

For assay [5], the system named is C3H/HeJ mice. The assay can be described thus: Hair coverage in alopecia areata (AA) skin-graft mouse model. Format: in vivo. To be noted: 150 or 300 mg/kg/day oral gavage once daily, week 8 time point (10 weeks after engraftment), vs vehicle. Here is the method: The C3H/HeJ mouse strain is known to spontaneously develop alopecia (AA) at a low frequency over a prolonged time frame. Transplantation of AA-affected skin from a C3H/HeJ mouse to unaffected C3H/HeJ recipients will induce the development of AA in nearly 100% of recipients over 4-8 weeks. Accordingly, to produce the AA mouse model, AA-affected C3H/HeJ skin was grafted onto groups of unaffected C3H/HeJ mice. The following treatment groups (n=10 per treatment group) were tested: • 1. Vehicle 0.5% methylcellulose (negative control) • 2. 150 mg/kg/day farudodstat • 3. 300 mg/kg/day farudodstat Treatments were administered once daily by oral gavage starting 2 weeks after engraftment and concluded after 12 weeks (84 days) of treatment. Photographs were taken at baseline, and every 4 weeks until the end of study Ventral hair growth was scored based on the photographs. Any mouse that had >98% hair coverage was classified as ‘no hair loss’.

For the molecule `COc1cccc(-c2cc(F)c(Nc3ncccc3C(=O)O)c(F)c2)c1` [farudodstat, 2-(3,5-difluoro-3′-methoxybiphenyl-4-ylamino) nicotinic acid], the “final mean vitiligo score” value in assay [1] (75 mg/kg/day oral gavage, vs vehicle) was “improvement in vitiligo score compared to the vehicle treated control group”; in assay [1] (150 mg/kg/day oral gavage, vs vehicle and vs 75 mg/kg/day) it was “greater improvement in vitiligo score compared to the 75 mg/kg/day group”. Besides, the “mean PMEL count, 150 mg/kg/day compared to 75 mg/kg/day” value in assay [2] (150 mg/kg/day oral gavage, end of experiment, flow cytometry) is recorded as “greater reduction in mean PMEL count compared to 75 mg/kg/day”. The “mean PMEL T cell count, dermis and epidermis” value in assay [2] (75 and 150 mg/kg/day oral gavage, end of experiment, flow cytometry) was “reduction in mean Pmel T cell count”. The “mean PMEL count in the spleen” value in assay [2] (oral gavage, compared with anti-IFNγ 250 μg twice a week IP) is reported as “reduction in mean PMEL count in the spleen that was even greater than that observed for anti-IFNγ”. For the same molecule, the “CD3+ T cell expansion (% of proliferating T-cells in hair follicles)” value in assay [3] is “T cell expansion was reduced”. Moreover, the “MHC Class I expression levels in hair follicles” value in assay [4] is listed as “decreased MHC Class I expression levels”. Besides, in assay [5], the “mean % hair coverage” value is “slight improvement in % hair coverage compared to the mice treated with vehicle”.

These data come from patent US20230338356A1, “TREATMENT OF AUTOIMMUNE SKIN DISEASE” (Aslan Pharmaceuticals Pte Ltd, priority 2022, published 2023).
